The subject of data set [1] is γ-Glutamyl transpeptidase (GGT). As to the kind of experiment: Enzyme assay of fluorescent probes: fluorescence intensity change on GGT addition. The data set is classed as biochemical. To be noted: 1 μM probe, 10 mM NaPi buffer pH 7.4, 37° C., 1.1 U GGT; 585 nm (probe 1), 613 nm (probe 2). As for the experimental part: γ-Glutamyl transpeptidase (GGT) was added to fluorescent probes 1 and 2 of the present invention, and the changes in fluorescence intensity were measured.
Fluorescent probe 1 or 2 was dissolved to make 1 μM in 2.5 mL of 10 mM NaPi buffer (pH 7.4) containing 0.03% DMSO. The solution, kept at 37° C., was stirred using a magnetic stirrer, and the fluorescence intensity was measured. 1.1 U of GGT was added two minutes after the start of measurement in experiments other than the negative control. The fluorescence intensity of fluorescent probe 1 at 585 nm was measured for a total of 6000 seconds and the fluorescence intensity of probe 2 at 613 nm was measured for a total of 2400 seconds, and plotted as a function of time elapsed. The excitation wavelength was 550 nm for fluorescent probe 1 and 593 nm for fluorescent probe 2; the slit width was 2.4 nm, 5.0 nm for both excitation and fluorescence, and the photomultiplier tube voltage was 700 V.
As a result, the fluorescence intensity was confirmed to increase due to addition of GGT in the case of both fluorescent probes 1 and 2. The quantum yield of fluorescent probe 1 was 0.58 at pH 3.0. The quantum yield of fluorescent probe 2 was 0.26 at pH 3.0.

Data set [2] has as its system SHIN3 cells disseminated intraperitoneally. As to the kind of experiment: In vivo imaging using cancer peritoneal dissemination model mice. The settings on record: 100 μM, 300 μL intraperitoneally, five minutes after administration. As for the experimental part: A quantity of 300 μL of 100 μM fluorescent probes 1 and 2 was injected intraperitoneally into model mice that had been injected intraperitoneally with SHIN3. After five minutes, the mice were placed under isoflurane anesthesia and laparotomized, and imaging was conducted by a Maestro imager.
Fluorescence spectrum imaging was conducted using a mouse model in which SHIN3 cells had been disseminated intraperitoneally. SHIN3-disseminated model mice were established by intraperitoneally injecting 3×10^6 SHIN3 cells suspended in 300 μL of PBS(−) into seven-week-old female nude mice. The experiment was conducted 29-30 days after injection. The probe solution (100 μM, 300 μL) dissolved in PBS(−) was injected intraperitoneally and allowed to stand for five minutes. The mice were then anesthetized by inhalation of isoflurane, and the skin of the abdomen was cut open. The intestine was removed from the incision, placed on a black rubber plate, and the mesentery was spread. It was applied dropwise to the spread mesentery. Fluorescence imaging was conducted using a Maestro™ Ex In-Vivo Imaging System (CRi Inc.). […] An image with the wavelength of fluorescence derived from the probe cut out or an image spectrally unmixed with autofluorescence is shown. […]

A short description of data set [3]: Fluorescence quantum yield. The data set is classed as physicochemical. The settings on record: pH 3.0.
Data set [4] can be described thus: Absorption/fluorescence spectrum measurement of the fluorescent probes (pKcycl from absorption spectra). To be noted: computed from absorption spectra (FIG. 2, FIG. 4). The data set is classed as physicochemical. The source says: The absorption spectra and fluorescence spectra of fluorescent probe 1 (gGlu-MHM4ThPCR550) and fluorescent probe 2 (gGlu-HM3ThPSiR600) synthesized in Example 1 were each measured.
FIGS. 2 and 3 respectively show the absorption spectra and fluorescence spectra of fluorescent probe 1 (gGlu-MHM4ThPCR550) and, as a comparison, MHM4ThPCR550 having no gGlu group. The pKcycl values computed from the results in FIG. 2 are shown below in Table 3.
The absorption spectra of HM3ThPSiR600 and HM3ThPAcSiR600 having no gGlu group are also shown as a comparison.

Data set [5] can be described thus: pKcycl measured values of existing rhodamine derivatives (model structures). It counts as physicochemical. The settings on record: Table 1, model structures. From the text:
A formula that calculates pKcycl from the free energy difference of the closed-ring form/ring-opened form by the analyzed cationic reaction was derived, assuming that acid-base equilibrium (lateral direction in the model) is reached quickly enough in the HM groups and amino groups. When the calculation results of close-1, open-1 were used as this free energy difference, it was understood that pKcycl of existing derivatives is accurately reproduced.

As to `C[Si]1(C)c2cc(N)ccc2C2(OCc3sccc32)c2ccc(NC(=O)CC[C@H](N)C(=O)O)cc21` (stereo partly drawn) [fluorescent probe 2], the “change in fluorescence intensity due to addition of GGT” value in data set [1] is “increase”. In data set [2], the “fluorescence imaging of tumors on the mesentery” value is “small tumors having adequate contrast from the background could be observed”. The molecule also displayed a quantum yield in data set [3] of 0.26. Also, the “pKcycl (Measured)” value in data set [4] was 5.4.

Turning to `CC1OC2(c3ccc(N)cc3C(C)(C)c3cc(NC(=O)CC[C@H](N)C(=O)O)ccc32)c2ccsc21` (stereo partly drawn) [fluorescent probe 1], the “change in fluorescence intensity due to addition of GGT” value in data set [1] was “increase”. The “fluorescence imaging of tumors on the mesentery” value in data set [2] was “small tumors having adequate contrast from the background could be observed”. In data set [3], this molecule showed a quantum yield of 0.58. The “pKcycl (Measured)” value in data set [4] is 6.3.

For `N=c1ccc2c(-c3ccccc3CO)c3ccc(N)cc3oc-2c1` [HMRG], the “pKcycl (Measured)” value in data set [5] is listed as 8.1.

Source of the values: US20200087516A1, “RED FLUORESCENT PROBE FOR USE IN DETECTION OF PEPTIDASE ACTIVITY” (The University of Tokyo, priority 2017, published 2020).
